Data from patent publication US20160022751A1, “NOVEL COMPOSITION FOR TREATING ALZHEIMER'S DISEASE AND IMPROVING COGNITIVE FUNCTION OF ALZHEIMER'S PATIENTS” (GANGNEUNG-WONJU NATIONAL UNIVERSITY INDUSTRY ACADEMY …, priority 2014, published 2016).

How the values were obtained:
Format in all cases: cell-based, mouse
NGF = NGF mRNA expression in N2a cells (quantitative RT-PCR); conditions: N2a cells (FIG. 13)
Description: Since NGF-Trk signal pathway upregulates ChAT and VAChT, it is important to know whether ginsenosides Rd and Re regulate Trk activity directly or at least indirectly. Therefore, the inventor investigated whether the expression of ChAT and VAChT was blocked by treating K252a, an inhibitor against protein kinase C (PKC) and Trk together with ginsenoside Rd or Re, in order to determine more closely whether the expression of cholinergic surface markers and the differentiation of neurons by the treatment of ginsenosides Rd and Re are caused whereby they act NGF-TrkA pathway directly. Particularly, N2a cells were treated with or without K252a (50 nM) in the presence of NGF (100 ng/mL), Re (5 μg/mL) or Rd (5 μg/mL) for 48 h. Total RNA and protein lysates were isolated as described in the Example 4-1 (FIG. 12). […] In addition, the present inventor performed quantitative RT-PCR in order to verify whether the treatment of ginsenosides Rd and Re affect the expression of NGF and NGFR in N2a cells.

TrkA = TrkA gene expression in N2a cells (quantitative RT-PCR); conditions: 24 h, Rd 5 μg/ml, Re 5 μg/ml or Rd/Re each 2.5 μg/ml (FIG. 11)
Description: On the other hand, the present inventor investigates the expression level of TrkA gene after treating ginsenoside Rd (5 μg/ml), Re (5 μg/ml) or mixture of Rd/Re (each 2.5 μg/ml) to N2a cells for 24 h, using quantitative RT-PCR method, similar to the method described in the Example 4 (FIG. 11).

ERK = ERK phosphorylation in N2a cells (western blot); conditions: compared with NGF (FIG. 10)
Description: (§1) The cholinergic marker ChAT and VAChT are known activate the ERK and Akt lower level path for cholinergic gene expression (Williams et al., Neurosci. Lett., 413: 110-114, 2007; Madziar et al., J. Neurochem., 107: 1284-1293, 2007) by controlling the NGF-TrkA signaling pathway. Thus, the present inventor investigated whether ginsenosides Rd and Re regulate activity of ERK and Akt in N2a cells using through western blot analysis. Specifically, N2a cells were lysed in 1% radioimmunoprecipitation assay (RIPA) buffer containing protease and phosphatase inhibitors (Roche, Mannheim, Germany) and whole cell lysates were separated by 10% sodium dodecyl sulfate polyacrylamide gel electrophoresis (SDS-PAGE). After electrophoresis, proteins were transferred onto polyvinylidene fluoride (PVDF) membranes and the membranes were blocked with 5% skim milk in Tris-buffered saline solution containing 0.1% Tween-20. The membrane was then immunoblotted with primary antibodies, anti-phospho-Akt, anti-phospho-extracellular signal-regulated protein kinase (ERK), anti-ChAT and anti-f3-actin (Santa Cruz Biotechnology, Santa Cruz, USA), and this was followed by incubation with horseradish peroxidase-conjugated anti-rabbit or anti-mouse secondary antibodies (Stressgen, USA). Blots were developed using an enhanced chemiluminescence (ECL) solution (Thermo, USA).

acetylcholine = experiment: Acetylcholine content in culture medium of N2a cells (assay kit); conditions: culture medium of N2a cells, 1, 2.5 and 5 μg/ml, 48 h (FIG. 7F)
Description: Further, the present inventor measured contents of acetylcholine in culture medium of N2a cells treated with Rd and/or […] (1, 2.5 and 5 μg/ml) for 48 h using a commercial acetylcholine assay kit (Cell Biolabs, USA), based on the enzyme driven reaction that will detect acetylcholine via acetylcholine esterase enzyme and choline oxidase according to the manufacturer's instruction (FIG. 7F).

CHT1 = CHT1 expression in N2a cells; conditions: N2a cells (FIG. 7E)
Description: Specifically, total RNA extracts from N2a cells were prepared using the Trizol method (Invitrogen, USA) and cDNA was synthesized from RNA by reverse transcription of 1 μg of total RNA using a reverse transcription system (Improm-II, Promega, USA) and oligo dT primers in a total volume of 20 μL. PCR amplification was performed using the primers described in Table 2 (Bioneer, Korea). Quantitative real-time PCR reactions were run on a Rotor-Gene 6000 (Corbett Research, Australia) using SensiMix™ SYBR Hi-ROX Kit (Bioline, U.K.) in 20 μL reaction mixtures. Each real-time-PCR master mix contained 10 μL 2× enzyme master mix, 7.0 μL RNase free water, 1 μL of each primer (10 pM each), and 1 μL diluted template. The PCR was performed with an initial pre-incubation step for 15 min at 95° C., followed by 45 cycles of 95° C. for 15 s, annealing at 52° C. for 15 s, and extension at 72° C. for 10 s. Melting curve analysis was used to confirm formation of the expected PCR product, and products from all assays were additionally tested with 1.2% agarose gel electrophoresis to confirm the correct lengths. […] Relative sample expression levels were calculated using Rotor-Gene 6000 Series Software 1.7, and were expressed relative to β-actin and corrected for between-run variability. Data for the experimental samples were expressed as a fold unit the internal control gene. […]

p75 = p75 protein immunocytochemistry in N2a cells; conditions: compared with NGF (FIG. 9B)
Description: (§2) Followed by the RT-PCR analysis, the present inventor investigated whether ginsenosides Re and Rd induce the expression of MAP-2 and p75 and the differentiation of neurons actually, via immunocytochemistry and morphological analysis using optical microscopic observation.
(§3) Specifically, Cultured N2a cells were fixed in 4% paraformaldehyde (in PBS) for 15 min, washed twice with PBS supplemented with 100 mM glycine for 5 min, and incubated with permeabilization buffer consisting of 0.1% Triton X-100 (Sigma-Aldrich, USA) in PBS for 30 min at room temperature. Blocking was performed with 1% bovine serum albumin (BSA, Sigma-Aldrich, USA) for 30 min at room temperature. Then Microtubule-Associated Protein-2 (MAP-2) or VAChT mouse monoclonal antibody 1:200 (Santa Cruz Biotechnology, USA) was added to 1% BSA in PBS with Tween 20 (PBST) and incubated for 2 h at room temperature. Cells were then washed three times with PBS before fluorescein isothiocyanate (FITC)-conjugated anti-mouse immunoglobulin G (IgG) 1:200 (Cell Signaling Technology, USA) was added to 1% BSA for 1 h at room temperature. The cells were rinsed and counterstained with 4,6-diamidino-2-phenylindole (DAPI, Sigma-Aldrich) for 10 min, followed by two PBS washes. […]

N2a cells = experiment: Morphological analysis of N2a cells (optical microscopy); conditions: untreated cells mostly rounded (FIG. 9C)
Description: as §2, §3

Akt = Akt phosphorylation in N2a cells (western blot); conditions: compared with NGF (FIG. 10)
Description: as §1

SMILES | NGF mRNA level (NGF) | expression of TrkA (TrkA) | ERK activation (phosphorylation) (ERK) | acetylcholine production (acetylcholine) | expression of CHT1 (CHT1) | p75 protein expression (p75) | morphological changes of N2a cells (N2a cells) | Akt activation (phosphorylation) (Akt)
CC(C)=CCC[C@](C)(O[C@@H]1O[C@H](CO)[C@@H](O)[C@H](O)[C@H]1O)[C@H]1CC[C@]2(C)[C@@H]1[C@H](O)C[C@@H]1[C@@]3(C)CC[C@H](O[C@@H]4O[C@H](CO)[C@@H](O)[C@H](O)[C@H]4O[C@@H]4O[C@H](CO)[C@@H](O)[C@H](O)[C@H]4O)C(C)(C)[C@@H]3CC[C@]12C [ginsenoside Rd] | significantly increased | increased the expression of TrkA in a dose-dependent manner | could activate ERK and Akt with phosphorylation as much as NGF | increased significantly | increased | switched to p75-positive N2a cells to the same or more extent as NGF | induced the production of distinctive multiple projections | could activate ERK and Akt with phosphorylation as much as NGF
CC(C)=CCC[C@](C)(O[C@@H]1O[C@H](CO)[C@@H](O)[C@H](O)[C@H]1O)[C@H]1CC[C@]2(C)[C@@H]1[C@H](O)C[C@@H]1[C@@]3(C)CC[C@H](O)C(C)(C)[C@@H]3[C@@H](O[C@@H]3O[C@H](CO)[C@@H](O)[C@H](O)[C@H]3O[C@@H]3O[C@@H](C)[C@H](O)[C@@H](O)[C@H]3O)C[C@]12C [ginsenoside Re] | significantly increased | increased the expression of TrkA in a dose-dependent manner | could activate ERK and Akt with phosphorylation as much as NGF | increased significantly | increased | switched to p75-positive N2a cells to the same or more extent as NGF | induced the production of distinctive multiple projections | could activate ERK and Akt with phosphorylation as much as NGF
